The values below come from patent US10906940B2, “Antimicrobial peptides, pharmaceutical compositions, and methods of use thereof” (priority 2014, dated 2021).

≈ marks a conversion by molar mass, not a printed value. Where a SMILES comes first, the peptide text is derived from it. Bridges are numbered along the chain shown (N, C = ends). [ ]: non-standard residue; d: D form. The star is where a group is joined. Pentadecanoyl = CCCCCCCCCCCCCCC(=O)*; Tridecanoyl = CCCCCCCCCCCCC(=O)*; Undecanoyl = CCCCCCCCCCC(=O)*; dOrn = NCCC[C@@H](N)C(=O)O

One test concerns E. coli CVM40148 (veb-1). The class given is cell-based, Escherichia coli.
For test [1], the system named is E. coli CVM 40137 (DHA-1). It counts as cell-based, Escherichia coli.
The subject of a further test is E. coli CVM 15103 (tem2). It counts as cell-based, Escherichia coli.
The subject of test [2] is E. coli CVM 40138 (LCR-1). The class given is cell-based, Escherichia coli.
Test [3] concerns E. coli CVM 40132 (ctx-m-9). The class given is cell-based, Escherichia coli.
For test [4], the system named is E. coli CVM 40133 (ctx-m-14). The class given is cell-based, Escherichia coli.
In test [5] the test system is E. coli CVM 40147 (vim-2). The class given is cell-based, Escherichia coli.
For test [6], the system named is E. coli CVM 40127 (oxa-2). The class given is cell-based, Escherichia coli.
The subject of test [7] is E. coli CVM 40128 (oxa-7). It counts as cell-based, Escherichia coli.
In test [8] the test system is E. coli CVM 40139 (fox-1). The class given is cell-based, Escherichia coli.
For test [9], the system named is E. coli CVM 40130 (oxa-9). The class given is cell-based, Escherichia coli.
The subject of test [10] is E. coli CVM 40129 (oxa-5). The class given is cell-based, Escherichia coli.
A further test concerns E. coli CVM 15104 (shv3). It counts as cell-based, Escherichia coli.
Test [11] concerns E. coli CVM 40143 (act-1). It counts as cell-based, Escherichia coli.
For a further test, the system named is E. coli CVM40146 (vim-1). The class given is cell-based, Escherichia coli.
The test system of test [12] is Enterobacter sakazakii E784.
Test [13] has as its system Klebsiella pneumoniae SBJ-9483. The note with it: SBJ-9483.
The subject of test [14] is Klebsiella pneumoniae SBJ-9388. The following applies: SBJ-9388.
Test [15] deals with Klebsiella pneumoniae SBJ-9149. The following applies: SBJ-9149.
Test [16] concerns carbapenem-resistant (CRE) strains and MRSA strains. In words: Broth microdilution MIC, summary of spectrum. It counts as cell-based.
Test [17] concerns Enterobacter cloacae SBJ-7612. The following applies: SBJ-7612.
Test [18] has as its system Enterobacter cloacae SBJ-9222. The following applies: SBJ-9222.
For a further test, the system named is E. coli ATCC 25853. The following applies: ATCC 25853.
Test [19] has as its system Listeria monocytogenes R2-583.
The next test deals with P. aeruginosa ATCC-27853. The following applies: ATCC-27853.

The term MIC denotes the lowest concentration found to suppress growth. Read a low MIC as greater potency. In the case of `CCCCCCCCCCCCCCC(=O)N[C@H](CCCN)C(=O)N[C@H](C(=O)N[C@@H]1C(=O)N[C@H](CCCN)C(=O)N[C@@H](CO)C(=O)N[C@@H](Cc2ccc(O)cc2)C(=O)N[C@H](CCCCN)C(=O)N[C@H](CO)C(=O)N[C@@H]([C@@H](C)CC)C(=O)N2CCC[C@H]2C(=O)N[C@@H]([C@@H](C)CC)C(=O)N2CCC[C@H]2C(=O)N[C@@H]([C@@H](C)CC)C(=O)O[C@@H]1C)C(C)C` [Compound B] (Pentadecanoyl-[dOrn]VT[dOrn]SY[dK][dS]IPIPI; ester 3-C; N-terminus assumed), the MIC against E. coli CVM40148 (veb-1) was found to be 8 µg/mL (≈ 4.84 µM); in test [1], 16 µg/mL (≈ 9.68 µM); against E. coli CVM 15103 (tem2), 8 µg/mL (≈ 4.84 µM); in test [2] it was 8 µg/mL (≈ 4.84 µM); in test [3], 16 µg/mL (≈ 9.68 µM); in test [4] it was 16 µg/mL (≈ 9.68 µM). Moreover, the MIC in [5] was found to be 16 µg/mL (≈ 9.68 µM); in [6], 16 µg/mL (≈ 9.68 µM); in [7], 8 µg/mL (≈ 4.84 µM); in [8] it was 16 µg/mL (≈ 9.68 µM); in test [9], 8 µg/mL (≈ 4.84 µM); in test [10], 8 µg/mL (≈ 4.84 µM). For the same molecule, the minimal inhibitory concentration (MIC) in the test on E. coli CVM 15104 (shv3) was found to be 16 µg/mL (≈ 9.68 µM); in test [11] it was 16 µg/mL (≈ 9.68 µM); in the test with E. coli CVM40146 (vim-1), 8 µg/mL (≈ 4.84 µM).
In the case of `CCCCCCCCCCCCC(=O)N[C@H](CCCN)C(=O)N[C@H](C(=O)N[C@@H]1C(=O)N[C@H](CCCN)C(=O)N[C@@H](CO)C(=O)N[C@@H](Cc2ccc(O)cc2)C(=O)N[C@H](CCCCN)C(=O)N[C@H](CO)C(=O)N[C@@H]([C@@H](C)CC)C(=O)N2CCC[C@H]2C(=O)N[C@@H]([C@@H](C)CC)C(=O)N2CCC[C@H]2C(=O)N[C@@H]([C@@H](C)CC)C(=O)O[C@@H]1C)C(C)C` [Compound A D-form] (Tridecanoyl-[dOrn]VT[dOrn]SY[dK][dS]IPIPI; ester 3-C), the MIC against E. coli CVM40148 (veb-1) is 8 µg/mL (≈ 4.93 µM); in [1] it was 8 µg/mL (≈ 4.93 µM); against E. coli CVM 15103 (tem2), 8 µg/mL (≈ 4.93 µM); in test [2], 8 µg/mL (≈ 4.93 µM); in test [3], 8 µg/mL (≈ 4.93 µM); in [4] it was 16 µg/mL (≈ 9.85 µM). The minimum inhibitory concentration (MIC) in [5] stood at 16 µg/mL (≈ 9.85 µM); in [6], 8 µg/mL (≈ 4.93 µM); in test [7], 8 µg/mL (≈ 4.93 µM); in test [8], 8 µg/mL (≈ 4.93 µM); in test [9] it was 8 µg/mL (≈ 4.93 µM); in [10] it was 8 µg/mL (≈ 4.93 µM). Further, the MIC (with E. coli CVM 15104 (shv3); in test [11]; in the test on E. coli CVM40146 (vim-1)) was 8 µg/mL (≈ 4.93 µM) in each case.
On to `CCCCCCCCCCC(=O)N[C@H](CCCN)C(=O)N[C@H](C(=O)N[C@@H]1C(=O)N[C@H](CCCN)C(=O)N[C@@H](CO)C(=O)N[C@@H](Cc2ccc(O)cc2)C(=O)N[C@H](CCCCN)C(=O)N[C@H](CO)C(=O)N[C@@H]([C@@H](C)CC)C(=O)N2CCC[C@H]2C(=O)N[C@@H]([C@@H](C)CC)C(=O)N2CCC[C@H]2C(=O)N[C@@H]([C@@H](C)CC)C(=O)O[C@@H]1C)C(C)C` [Compound C] (Undecanoyl-[dOrn]VT[dOrn]SY[dK][dS]IPIPI; ester 3-C; N-terminus assumed), for which the MIC (against E. coli CVM40148 (veb-1); in test [1]; in the test on E. coli CVM 15103 (tem2); in [2]; in test [3]; in [4]) was 8 µg/mL (≈ 5.01 µM) in each case. Besides, the MIC in test [5] amounted to 16 µg/mL (≈ 10 µM); in [6], 8 µg/mL (≈ 5.01 µM); in test [7], 8 µg/mL (≈ 5.01 µM); in test [8] it was 8 µg/mL (≈ 5.01 µM); in test [9] it was 8 µg/mL (≈ 5.01 µM); in test [10], 8 µg/mL (≈ 5.01 µM). Also, the MIC (in the test with E. coli CVM 15104 (shv3); in test [11]; against E. coli CVM40146 (vim-1)) was 8 µg/mL (≈ 5.01 µM) in each case.
In the case of `CCCCCCCCCCCCC(=O)N[C@H](CCCN)C(=O)N[C@H](C(=O)N[C@@H]1C(=O)N[C@H](CCCN)C(=O)N[C@@H](CO)C(=O)N[C@@H](Cc2ccccc2)C(=O)N[C@H](CCCCN)C(=O)N[C@H](CO)C(=O)N[C@@H]([C@@H](C)CC)C(=O)N2CCC[C@H]2C(=O)N[C@@H]([C@@H](C)CC)C(=O)N2CCC[C@H]2C(=O)N[C@@H]([C@@H](C)CC)C(=O)O[C@@H]1C)C(C)C` [Variant D] (Tridecanoyl-[dOrn]VT[dOrn]SF[dK][dS]IPIPI; ester 3-C; N-terminus assumed), the minimum inhibitory concentration (MIC) (against E. coli CVM40148 (veb-1); in test [1]; against E. coli CVM 15103 (tem2); in test [2]; in test [3]; in [4]) was 8 µg/mL (≈ 4.97 µM) each time. The MIC was determined as 16 µg/mL (≈ 9.95 µM) in [5]; 8 µg/mL (≈ 4.97 µM) in test [6]; 8 µg/mL (≈ 4.97 µM) in test [7]; 8 µg/mL (≈ 4.97 µM) in [8]; 8 µg/mL (≈ 4.97 µM) in [9]; 8 µg/mL (≈ 4.97 µM) in test [10]. Besides, the minimum inhibitory concentration (MIC) was 16 µg/mL (≈ 9.95 µM) against E. coli CVM 15104 (shv3), 16 µg/mL (≈ 9.95 µM) in [11] and 8 µg/mL (≈ 4.97 µM) against E. coli CVM40146 (vim-1).
`CCCCCCCCCCCCC(=O)N[C@H](CCCN)C(=O)N[C@H](C(=O)N[C@@H]1C(=O)N[C@H](CCCN)C(=O)N[C@@H](CO)C(=O)N[C@@H](Cc2ccc(O)cc2)C(=O)N[C@@H](CCCCN)C(=O)N[C@H](CO)C(=O)N[C@@H]([C@@H](C)CC)C(=O)N2CCC[C@H]2C(=O)N[C@@H]([C@@H](C)CC)C(=O)N2CCC[C@H]2C(=O)N[C@@H]([C@@H](C)CC)C(=O)O[C@@H]1C)C(C)C` [Compound A L-form] (Tridecanoyl-[dOrn]VT[dOrn]SYK[dS]IPIPI; ester 3-C): the MIC in the test with P. aeruginosa -01 worked out at 8 µg/mL (≈ 4.93 µM); in [12], 8 µg/mL (≈ 4.93 µM); against E. faecalis ATCC 29212, 4 µg/mL (≈ 2.46 µM); against P. aeruginosa -02, 8 µg/mL (≈ 4.93 µM); against P. aeruginosa SBJ-10886, 4 µg/mL (≈ 2.46 µM); in [13], 4 µg/mL (≈ 2.46 µM). The MIC amounted to 4 µg/mL (≈ 2.46 µM) in [14]; 4 µg/mL (≈ 2.46 µM) in test [15]; 4 µg/mL (≈ 2.46 µM) with S. aureus ATCC 29213; 8 µg/mL (≈ 4.93 µM) against E. coli CVM40148 (veb-1); 8 µg/mL (≈ 4.93 µM) in test [1]; 8 µg/mL (≈ 4.93 µM) in the test with E. coli CVM 15103 (tem2). In addition, the MIC came to 8 µg/mL (≈ 4.93 µM) in [2]; 8 µg/mL (≈ 4.93 µM) in test [3]; 8 µg/mL (≈ 4.93 µM) in [4]; 16 µg/mL (≈ 9.85 µM) in test [5]; 8 µg/mL (≈ 4.93 µM) in test [6]; 8 µg/mL (≈ 4.93 µM) in test [7]. Also, the MIC is 8 µg/mL (≈ 4.93 µM) in [8]; 8 µg/mL (≈ 4.93 µM) in test [9]; 4 µg/mL (≈ 2.46 µM) in [10]; 8 µg/mL (≈ 4.93 µM) in the test on E. coli CVM 15104 (shv3); 8 µg/mL (≈ 4.93 µM) in test [11]; 8 µg/mL (≈ 4.93 µM) in the test with E. coli CVM40146 (vim-1). The minimum inhibitory concentration (MIC) in [17] came to 4 µg/mL (≈ 2.46 µM); in the test with P. aeruginosa -03, 8 µg/mL (≈ 4.93 µM); in test [18], 8 µg/mL (≈ 4.93 µM); in the test with E. coli ATCC 25853 it was 4 µg/mL (≈ 2.46 µM); in [19], 2 µg/mL (≈ 1.23 µM); against S. aureus ATCC25923 it was 2 µg/mL (≈ 1.23 µM). In addition, the minimal inhibitory concentration (MIC) against P. aeruginosa SBJ-10884 came to 4 µg/mL (≈ 2.46 µM); in the test on E. coli O157: H7 EDL933, 4 µg/mL (≈ 2.46 µM); against Salmonella Newport #17, 16 µg/mL (≈ 9.85 µM); in the test on P. aeruginosa ATCC-27853 it was 8 µg/mL (≈ 4.93 µM). The “sensitivity of bacteria compared with paenibacterin of US2013/0164317” value in [16] (comparison in words) is recorded as “much greater sensitivity”. Moreover, the “activity against CRE strains and MRSA strains” value in [16] (summary of Table 6) is recorded as “very potent activity”.
